Assay results reported in PubChem BioAssay AID220 (DTP/NCI, 2004).
Values joined by “and” are separate entries in the source; they are usually repeats but may differ in a detail not shown here. Equal values may be shown once. Results filed as inconclusive are left out.

Test system: CD8F1 mice, subcutaneous mammary adenocarcinoma, T/C%
Test: NCI In Vivo Anticancer Drug Screen. Data for tumor model Mammary Adenocarcinoma CD8F1 (subcutaneous) in CD8F1
Conditions: higher = larger tumour
How it was run: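 Transplantable tumors were established in mice, animals were dosed with compound or vehicle, and survival or tumor size was then measured in both groups. The treated result was divided by the control result.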

[1] = endpoint: median tumor weight (est.), dose: 25.0 mg/kg/injection, schedule: Q07DX005 (ip), vehicle: saline
[2] = endpoint: median tumor weight (est.), dose: 50.0 mg/kg/injection, schedule: Q07DX005 (ip), vehicle: saline

ClCCCN1CCCCC1CCl (stereo unspecified)
T/C (endpoint: median tumor weight (est.), dose: 1.56 mg/kg/injection, schedule: Q07DX005 (ip), vehicle: saline): 73 % of control | T/C (endpoint: median tumor weight (est.), dose: 3.12 mg/kg/injection, schedule: Q07DX005 (ip), vehicle: saline): 123 % of control and 105 % of control | T/C (endpoint: median tumor weight (est.), dose: 6.25 mg/kg/injection, schedule: Q07DX005 (ip), vehicle: saline): 71 % of control and 78 % of control | T/C [1]: 53 % of control | T/C [2]: 3 % of control

CC[C@H]1CN2CCc3cc(OC)c(OC)cc3[C@@H]2C[C@@H]1C[C@H]1NCCc2cc(OC)c(OC)cc21
T/C (endpoint: mean tumor weight, dose: 0.88 mg/kg/injection, schedule: Q07DX006 (ip), vehicle: saline): 46 % of control | T/C (endpoint: mean tumor weight, dose: 1.75 mg/kg/injection, schedule: Q07DX005 (ip), vehicle: saline): 163 % of control | T/C (endpoint: mean tumor weight, dose: 1.75 mg/kg/injection, schedule: Q07DX006 (ip), vehicle: saline): 65 % of control | T/C (endpoint: mean tumor weight, dose: 3.5 mg/kg/injection, schedule: Q07DX005 (ip), vehicle: saline): 258 % of control | T/C (endpoint: mean tumor weight, dose: 3.5 mg/kg/injection, schedule: Q07DX006 (ip), vehicle: saline): 42 % of control | T/C (endpoint: mean tumor weight, dose: 7.0 mg/kg/injection, schedule: Q07DX005 (ip), vehicle: saline): 153 % of control | T/C (endpoint: mean tumor weight, dose: 7.0 mg/kg/injection, schedule: Q07DX006 (ip), vehicle: saline): 73 % of control | T/C (endpoint: mean tumor weight, dose: 14.0 mg/kg/injection, schedule: Q07DX005 (ip), vehicle: saline): 156 % of control | T/C (endpoint: mean tumor weight, dose: 14.0 mg/kg/injection, schedule: Q07DX006 (ip), vehicle: saline): 96 % of control | T/C (endpoint: median tumor weight (est.), dose: 1.75 mg/kg/injection, schedule: Q07DX005 (ip), vehicle: saline): 214 % of control | T/C (endpoint: median tumor weight (est.), dose: 3.5 mg/kg/injection, schedule: Q07DX005 (ip), vehicle: saline): 166 % of control | T/C (endpoint: median tumor weight (est.), dose: 7.0 mg/kg/injection, schedule: Q07DX005 (ip), vehicle: saline): 92 % of control | T/C (endpoint: median tumor weight (est.), dose: 28.0 mg/kg/injection, schedule: Q07DX005 (ip), vehicle: saline): 86 % of control

CCCCCCCCCCCCCCCC(=O)Nc1ccn(C2OC(CO)C(O)C2O)c(=O)n1 (stereo unspecified)
T/C (endpoint: median tumor weight (est.), dose: 12.5 mg/kg/injection, schedule: Q07DX005 (ip), vehicle: saline): 58 % of control | T/C [1]: 63 % of control | T/C [2]: 65 % of control | T/C (endpoint: median tumor weight (est.), dose: 100.0 mg/kg/injection, schedule: Q07DX005 (ip), vehicle: saline): 31 % of control | T/C (endpoint: median tumor weight (est.), dose: 400.0 mg/kg/injection, schedule: Q07DX005 (ip), vehicle: saline): 14 % of control

COc1cccc(C2NC(=O)c3c(n[nH]c3N)S2)c1O (stereo unspecified)
T/C (endpoint: median tumor weight change, dose: 112.5 mg/kg/injection, schedule: Q01DX001 (ip), vehicle: saline with Tween-80): 71 % of control | T/C (endpoint: median tumor weight change, dose: 225.0 mg/kg/injection, schedule: Q01DX001 (ip), vehicle: saline with Tween-80): 91 % of control | T/C (endpoint: median tumor weight change, dose: 450.0 mg/kg/injection, schedule: Q01DX001 (ip), vehicle: saline with Tween-80): 92 % of control | T/C (endpoint: median tumor weight change, dose: 900.0 mg/kg/injection, schedule: Q01DX001 (ip), vehicle: saline with Tween-80): 76 % of control | T/C (endpoint: median tumor weight change, dose: 1800.0 mg/kg/injection, schedule: Q01DX001 (ip), vehicle: saline with Tween-80): 79 % of control

OCC1OC(n2cnc3cc(Cl)c(Cl)cc32)C(O)C1O (stereo unspecified)
T/C (endpoint: median tumor weight (est.), dose: 12.5 mg/kg/injection, schedule: Q07DX005 (ip), vehicle: saline with Tween-80): 79 % of control | T/C (endpoint: median tumor weight (est.), dose: 25.0 mg/kg/injection, schedule: Q07DX005 (ip), vehicle: saline with Tween-80): 89 % of control and 92 % of control | T/C (endpoint: median tumor weight (est.), dose: 200.0 mg/kg/injection, schedule: Q07DX005 (ip), vehicle: saline with Tween-80): 80 % of control

O=C1CC2(C(=O)N1CN1CCCCC1)c1ccccc1-c1ccccc12
T/C (endpoint: median tumor weight (est.), dose: 12.5 mg/kg/injection, schedule: Q07DX005 (ip), vehicle: Klucel (hydroxypropylcellulose) (HPC)): 99 % of control | T/C (endpoint: median tumor weight (est.), dose: 25.0 mg/kg/injection, schedule: Q07DX005 (ip), vehicle: Klucel (hydroxypropylcellulose) (HPC)): 71 % of control | T/C (endpoint: median tumor weight (est.), dose: 100.0 mg/kg/injection, schedule: Q07DX005 (ip), vehicle: Klucel (hydroxypropylcellulose) (HPC)): 85 % of control | T/C (endpoint: median tumor weight (est.), dose: 200.0 mg/kg/injection, schedule: Q07DX005 (ip), vehicle: Klucel (hydroxypropylcellulose) (HPC)): 62 % of control | T/C (endpoint: median tumor weight (est.), dose: 400.0 mg/kg/injection, schedule: Q07DX005 (ip), vehicle: Klucel (hydroxypropylcellulose) (HPC)): 21 % of control
